In PubChem BioAssay (NCI):
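Five concentrations, 48 hours, 96-well plates. TGI denotes the concentration required for complete inhibition of growth.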

Legend:
Assay in all cases: NCI tumour cell line growth inhibition, 48 h
[1] = tested on: SN12C renal
[2] = tested on: SK-OV-3 ovarian
[3] = tested on: HCT-15 colon
[4] = tested on: TK-10 renal
[5] = tested on: OVCAR-8 ovarian
[6] = tested on: RPMI-8226 leukemia
[7] = tested on: NCI-H522 lung
[8] = tested on: EKVX NSCLC
[9] = tested on: U251 CNS
[10] = tested on: UACC-257 melanoma
[11] = tested on: A549 NSCLC
[12] = tested on: OVCAR-5 ovarian
[13] = tested on: DU-145 prostate
[14] = tested on: M14 melanoma
[15] = tested on: MDA-MB-435
[16] = tested on: K-562 leukemia
[17] = tested on: NCI-H23 lung
[18] = tested on: KM12 colon
[19] = tested on: MDA-MB-231 breast
[20] = tested on: HT29 colon
[21] = tested on: UO-31 renal
[22] = tested on: IGROV1 ovarian
[23] = tested on: SF-295 CNS
[24] = tested on: BT-549 breast
[25] = tested on: SF-268 CNS
[26] = tested on: UACC-62 melanoma
[27] = tested on: MDA-N
[28] = tested on: MALME-3M melanoma
[29] = tested on: PC-3 prostate
[30] = tested on: RXF 393 renal
[31] = tested on: NCI/ADR-RES ovarian
[32] = tested on: HCT-116 colon
[33] = tested on: A498 renal
[34] = tested on: SNB-75 CNS
[35] = tested on: HS 578T breast
[36] = tested on: HOP-92 NSCLC
[37] = tested on: COLO 205 colon
[38] = tested on: CCRF-CEM leukemia
[39] = tested on: SK-MEL-2 melanoma
[40] = tested on: MCF7 breast
[41] = tested on: SNB-19 CNS
[42] = tested on: HL-60(TB) leukemia
[43] = tested on: SK-MEL-28 melanoma
[44] = tested on: HOP-62 NSCLC
[45] = tested on: NCI-H226 lung
[46] = tested on: SR leukemia
[47] = tested on: OVCAR-4 ovarian
[48] = tested on: SF-539 CNS
[49] = tested on: 786-0 renal
[50] = tested on: ACHN renal
[51] = tested on: NCI-H460 lung
[52] = tested on: OVCAR-3 ovarian
[53] = tested on: MOLT-4 leukemia
[54] = tested on: SW-620 colon
[55] = tested on: T-47D breast
[56] = tested on: SK-MEL-5 melanoma
[57] = tested on: LOX IMVI melanoma
[58] = tested on: CAKI-1 renal
[59] = tested on: HCC-2998 colon

Compound: C1=NCCOCCN=Cc2ccc(cc2)OCc2cccc(n2)COc2ccc1cc2
- TGI [1]: > 100 µM
- TGI [2]: > 100 µM
- TGI [3]: > 100 µM
- TGI [4]: > 100 µM
- TGI [5]: > 100 µM
- TGI [6]: > 100 µM
- TGI [7]: > 100 µM
- TGI [8]: > 100 µM
- TGI [9]: > 100 µM
- TGI [10]: > 100 µM
- TGI [11]: > 100 µM
- TGI [12]: > 100 µM
- TGI [13]: > 100 µM
- TGI [14]: > 100 µM
- TGI [15]: > 100 µM
- TGI [16]: > 100 µM
- TGI [17]: > 100 µM
- TGI [18]: > 100 µM
- TGI [19]: > 100 µM
- TGI [20]: > 100 µM
- TGI [21]: > 100 µM
- TGI [22]: > 100 µM
- TGI [23]: > 100 µM
- TGI [24]: > 100 µM
- TGI [25]: > 100 µM
- TGI [26]: > 100 µM
- TGI [27]: > 100 µM
- TGI [28]: > 100 µM
- TGI [29]: > 100 µM
- TGI [30]: > 100 µM
- TGI [31]: > 100 µM
- TGI [32]: > 100 µM
- TGI [33]: > 100 µM
- TGI [34]: > 100 µM
- TGI [35]: > 100 µM
- TGI [36]: > 100 µM
- TGI [37]: > 100 µM
- TGI [38]: > 100 µM
- TGI [39]: > 100 µM
- TGI [40]: > 100 µM
- TGI [41]: > 100 µM
- TGI [42]: > 100 µM
- TGI [43]: > 100 µM
- TGI [44]: > 100 µM
- TGI [45]: > 100 µM
- TGI [46]: > 100 µM
- TGI [47]: > 100 µM
- TGI [48]: > 100 µM
- TGI [49]: > 100 µM
- TGI [50]: > 100 µM
- TGI [51]: > 100 µM
- TGI [52]: > 100 µM
- TGI [53]: > 100 µM
- TGI [54]: > 100 µM

Compound: Cc1ccc(/S(Cc2ccccc2)=N\S(=O)(=O)c2ccc(C)cc2)cc1 (stereo not drawn)
- TGI [1]: > 100 µM
- TGI [3]: > 100 µM
- TGI [4]: > 100 µM
- TGI [5]: > 100 µM
- TGI [6]: > 100 µM
- TGI [8]: > 100 µM
- TGI [9]: > 100 µM
- TGI [10]: > 100 µM
- TGI [11]: > 100 µM
- TGI [12]: > 100 µM
- TGI [13]: > 100 µM
- TGI [14]: > 100 µM
- TGI [15]: > 100 µM
- TGI [16]: > 100 µM
- TGI [17]: > 100 µM
- TGI [18]: > 100 µM
- TGI [20]: > 100 µM
- TGI [21]: > 100 µM
- TGI [23]: > 100 µM
- TGI [24]: > 100 µM
- TGI [25]: > 100 µM
- TGI [27]: > 100 µM
- TGI [28]: > 100 µM
- TGI [29]: > 100 µM
- TGI [30]: > 100 µM
- TGI [31]: > 100 µM
- TGI [32]: > 100 µM
- TGI [36]: > 100 µM
- TGI [37]: > 100 µM
- TGI [38]: > 100 µM
- TGI [40]: > 100 µM
- TGI [41]: > 100 µM
- TGI [42]: > 100 µM
- TGI [43]: > 100 µM
- TGI [44]: > 100 µM
- TGI [45]: > 100 µM
- TGI [55]: > 100 µM
- TGI [46]: > 100 µM
- TGI [48]: > 100 µM
- TGI [49]: > 100 µM
- TGI [50]: > 100 µM
- TGI [51]: > 100 µM
- TGI [52]: > 100 µM
- TGI [54]: > 100 µM

Compound: COC(=O)C1(O)C(c2ccccc2)NC2(C)CCCC21 (stereo not drawn)
- TGI [1]: > 100 µM
- TGI [2]: > 100 µM
- TGI [56]: > 100 µM
- TGI [3]: > 100 µM
- TGI [4]: > 100 µM
- TGI [5]: > 100 µM
- TGI [57]: > 100 µM
- TGI [7]: > 100 µM
- TGI [9]: > 100 µM
- TGI [10]: > 100 µM
- TGI [11]: > 100 µM
- TGI [13]: > 100 µM
- TGI [14]: > 100 µM
- TGI [15]: > 100 µM
- TGI [17]: > 100 µM
- TGI [18]: > 100 µM
- TGI [19]: > 100 µM
- TGI [21]: > 100 µM
- TGI [22]: > 100 µM
- TGI [23]: > 100 µM
- TGI [24]: > 100 µM
- TGI [25]: > 100 µM
- TGI [26]: > 100 µM
- TGI [27]: > 100 µM
- TGI [28]: > 100 µM
- TGI [29]: > 100 µM
- TGI [30]: > 100 µM
- TGI [31]: > 100 µM
- TGI [32]: > 100 µM
- TGI [33]: > 100 µM
- TGI [34]: > 100 µM
- TGI [35]: > 100 µM
- TGI [37]: > 100 µM
- TGI [38]: > 100 µM
- TGI [39]: > 100 µM
- TGI [40]: > 100 µM
- TGI [41]: > 100 µM
- TGI [42]: > 100 µM
- TGI [43]: > 100 µM
- TGI [44]: > 100 µM
- TGI [45]: > 100 µM
- TGI [55]: > 100 µM
- TGI [58]: > 100 µM
- TGI [47]: > 100 µM
- TGI [48]: > 100 µM
- TGI [49]: > 100 µM
- TGI [50]: > 100 µM
- TGI [53]: > 100 µM
- TGI [54]: > 100 µM

Compound: COc1cc(S(=O)(=O)Nc2ccc(-c3csc(N4C(=O)C(Cl)C4c4cccs4)n3)cc2)ccc1Cl (stereo not drawn)
- TGI [1]: > 100 µM
- TGI [2]: > 100 µM
- TGI [56]: > 100 µM
- TGI [3]: > 100 µM
- TGI [5]: > 100 µM
- TGI [6]: > 100 µM
- TGI [57]: 5.15 µM
- TGI [7]: 30.6 µM
- TGI [8]: > 100 µM
- TGI [10]: > 100 µM
- TGI [11]: > 100 µM
- TGI [12]: > 100 µM
- TGI [13]: > 100 µM
- TGI [14]: > 100 µM
- TGI [15]: > 100 µM
- TGI [16]: > 100 µM
- TGI [17]: > 100 µM
- TGI [18]: > 100 µM
- TGI [20]: > 100 µM
- TGI [21]: > 100 µM
- TGI [22]: > 100 µM
- TGI [23]: > 100 µM
- TGI [24]: > 100 µM
- TGI [25]: > 100 µM
- TGI [26]: > 100 µM
- TGI [27]: > 100 µM
- TGI [28]: > 100 µM
- TGI [29]: > 100 µM
- TGI [30]: 86.4 µM
- TGI [31]: > 100 µM
- TGI [32]: > 100 µM
- TGI [33]: > 100 µM
- TGI [34]: > 100 µM
- TGI [35]: > 100 µM
- TGI [36]: 45.5 µM
- TGI [37]: > 100 µM
- TGI [38]: 35.7 µM
- TGI [39]: > 100 µM
- TGI [40]: > 100 µM
- TGI [41]: > 100 µM
- TGI [42]: > 100 µM
- TGI [43]: > 100 µM
- TGI [44]: > 100 µM
- TGI [45]: > 100 µM
- TGI [59]: > 100 µM
- TGI [55]: > 100 µM
- TGI [46]: 91.5 µM
- TGI [58]: > 100 µM
- TGI [47]: 77.5 µM
- TGI [48]: > 100 µM
- TGI [49]: 68.3 µM
- TGI [50]: > 100 µM
- TGI [51]: > 100 µM
- TGI [52]: > 100 µM
- TGI [53]: > 100 µM
- TGI [54]: > 100 µM
